Test results taken from PubChem BioAssay (NCI).
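Results reflect a 48-hour exposure of cells in 96-well plates to compound at five concentrations. GI50 = concentration required for 50% inhibition of growth. TGI marks complete inhibition of growth.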

What was measured:
Assay in all cases: inhibition of tumour cell growth, NCI panel, 48 h
[1] = test system: KM12 colon
[2] = test system: RXF 393 renal
[3] = test system: HCT-116 colon
[4] = test system: HCC-2998 colon
[5] = test system: OVCAR-3 ovarian
[6] = test system: K-562 leukemia
[7] = test system: MDA-MB-231 breast
[8] = test system: UO-31 renal
[9] = test system: COLO 205 colon
[10] = test system: HL-60(TB) leukemia
[11] = test system: SK-MEL-2 melanoma
[12] = test system: RPMI-8226 leukemia
[13] = test system: TK-10 renal
[14] = test system: HOP-92 NSCLC
[15] = test system: NCI/ADR-RES ovarian
[16] = test system: SF-539 CNS
[17] = test system: LOX IMVI melanoma
[18] = test system: A498 renal
[19] = test system: SF-295 CNS
[20] = test system: CCRF-CEM leukemia
[21] = test system: HT29 colon
[22] = test system: ACHN renal
[23] = test system: MALME-3M melanoma
[24] = test system: SW-620 colon
[25] = test system: PC-3 prostate
[26] = test system: NCI-H23 lung
[27] = test system: HCT-15 colon
[28] = test system: OVCAR-5 ovarian
[29] = test system: MCF7 breast
[30] = test system: NCI-H226 lung
[31] = test system: DU-145 prostate
[32] = test system: UACC-257 melanoma
[33] = test system: BT-549 breast
[34] = test system: T-47D breast
[35] = test system: SK-MEL-5 melanoma
[36] = test system: MOLT-4 leukemia
[37] = test system: OVCAR-8 ovarian
[38] = test system: HOP-62 NSCLC
[39] = test system: SK-OV-3 ovarian
[40] = test system: UACC-62 melanoma
[41] = test system: 786-0 renal
[42] = test system: SNB-75 CNS
[43] = test system: A549 NSCLC
[44] = test system: SK-MEL-28 melanoma
[45] = test system: IGROV1 ovarian
[46] = test system: NCI-H460 lung
[47] = test system: SNB-19 CNS
[48] = test system: SF-268 CNS
[49] = test system: U251 CNS
[50] = test system: OVCAR-4 ovarian
[51] = test system: SN12C renal
[52] = test system: MDA-MB-435
[53] = test system: M14 melanoma
[54] = test system: SR leukemia
[55] = test system: HS 578T breast
[56] = test system: NCI-H522 lung
[57] = test system: CAKI-1 renal

With `CC1(C)N=C(N)N=C(N)N1c1ccc(CCC(=O)Nc2ccc(S(=O)(=O)F)cc2)cc1` the GI50 [1] was 0.64 µM, the TGI [1] was greater than 100 µM and the GI50 [2] was 0.307 µM. For the same compound, the TGI [2] was greater than 100 µM, the GI50 [3] was 0.425 µM and the TGI [3] was greater than 100 µM. For the same compound, the GI50 [4] was 3.85 µM, the TGI [4] was greater than 100 µM and the GI50 [5] was 8.03 µM. It also gave a TGI [5] greater than 100 µM, a GI50 [6] of 0.533 µM and a TGI [6] greater than 100 µM. The GI50 [7] was 23.1 µM, the TGI [7] was greater than 100 µM and the GI50 [8] was 34.1 µM. For the same compound, the TGI [8] was greater than 100 µM, the GI50 [9] was 0.922 µM and the TGI [9] was greater than 100 µM. It also gave a GI50 [10] of 0.854 µM, a TGI [10] greater than 100 µM and a GI50 [11] of 26.4 µM. For the same compound, the TGI [11] was greater than 100 µM, the GI50 [12] was 1.22 µM and the TGI [12] was greater than 100 µM. For the same compound, the GI50 [13] was 1.72 µM, the TGI [13] was greater than 100 µM and the GI50 [14] was 5.31 µM. The TGI [14] was greater than 100 µM, the GI50 [15] was 98.3 µM and the TGI [15] was greater than 100 µM. The GI50 [16] was 2.94 µM, the TGI [16] was greater than 94.1 µM and the GI50 [17] was 1.66 µM. It also gave a TGI [17] greater than 100 µM, a GI50 [18] of 5.99 µM and a TGI [18] greater than 100 µM. For the same compound, the GI50 [19] was 4.49 µM, the TGI [19] was greater than 100 µM and the GI50 [20] was 0.73 µM. The TGI [20] was greater than 100 µM, the GI50 [21] was 0.362 µM and the TGI [21] was greater than 100 µM. It also gave a GI50 [22] of 7.34 µM, a TGI [22] greater than 100 µM and a GI50 [23] of 10.9 µM. It also gave a TGI [23] greater than 100 µM, a GI50 [24] of 0.371 µM and a TGI [24] greater than 100 µM. For the same compound, the GI50 [25] was 0.0593 µM, the TGI [25] was greater than 72.1 µM and the GI50 [26] was 2.19 µM. It also gave a TGI [26] greater than 100 µM, a GI50 [27] of 3.48 µM and a TGI [27] greater than 100 µM. It also gave a GI50 [28] of 0.599 µM, a TGI [28] greater than 100 µM and a GI50 [29] of 1.8 µM. The TGI [29] was greater than 100 µM, the GI50 [30] was 7.35 µM and the TGI [30] was greater than 100 µM. It also gave a GI50 [31] of 0.871 µM, a TGI [31] greater than 100 µM and a GI50 [32] of 15.5 µM. For the same compound, the TGI [32] was greater than 100 µM, the GI50 [33] was 12.6 µM and the TGI [33] was greater than 100 µM. The GI50 [34] was 16.2 µM, the TGI [34] was greater than 100 µM and the GI50 [35] was 0.774 µM. It also gave a TGI [35] of 57 µM, a GI50 [36] of 4.62 µM and a TGI [36] greater than 100 µM. It also gave a GI50 [37] of 5.08 µM, a TGI [37] greater than 100 µM and a GI50 [38] of 8.62 µM. For the same compound, the TGI [38] was greater than 100 µM, the GI50 [39] was greater than 70.2 µM and the TGI [39] was greater than 100 µM. It also gave a GI50 [40] of 0.388 µM, a TGI [40] greater than 100 µM and a GI50 [41] of 0.529 µM. For the same compound, the TGI [41] was greater than 100 µM, the GI50 [42] was 2.42 µM and the TGI [42] was greater than 100 µM. It also gave a GI50 [43] of 2.87 µM, a TGI [43] greater than 100 µM and a GI50 [44] of 8.22 µM. The TGI [44] was greater than 100 µM, the GI50 [45] was 0.0723 µM and the TGI [45] was greater than 100 µM. The GI50 [46] was 0.253 µM, the TGI [46] was greater than 100 µM and the GI50 [47] was 7.16 µM. It also gave a TGI [47] greater than 100 µM, a GI50 [48] of 1.31 µM and a TGI [48] greater than 100 µM. The GI50 [49] was 2.01 µM, the TGI [49] was greater than 100 µM and the GI50 [50] was greater than 78.5 µM. The TGI [50] was greater than 100 µM, the GI50 [51] was 1.59 µM and the TGI [51] was greater than 100 µM. For the same compound, the GI50 [52] was 0.461 µM, the TGI [52] was greater than 100 µM and the GI50 [53] was 0.936 µM. For the same compound, the TGI [53] was greater than 100 µM, the GI50 [54] was 0.209 µM and the TGI [54] was greater than 100 µM. The GI50 [55] was greater than 75.8 µM, the TGI [55] was greater than 100 µM and the GI50 [56] was 1.26 µM. For the same compound, the TGI [56] was greater than 100 µM, the GI50 [57] was 2.33 µM and the TGI [57] was greater than 100 µM.
